# Data reported in patent publication US20120309796A1, “BENZOCYCLOHEPTENE ACETIC ACIDS” (priority 2011, published 2012).
# Target: T1, human CRTH2 (Homo sapiens, UniProt Q9Y5Y4)
# T1 sequence (Q9Y5Y4 1-395): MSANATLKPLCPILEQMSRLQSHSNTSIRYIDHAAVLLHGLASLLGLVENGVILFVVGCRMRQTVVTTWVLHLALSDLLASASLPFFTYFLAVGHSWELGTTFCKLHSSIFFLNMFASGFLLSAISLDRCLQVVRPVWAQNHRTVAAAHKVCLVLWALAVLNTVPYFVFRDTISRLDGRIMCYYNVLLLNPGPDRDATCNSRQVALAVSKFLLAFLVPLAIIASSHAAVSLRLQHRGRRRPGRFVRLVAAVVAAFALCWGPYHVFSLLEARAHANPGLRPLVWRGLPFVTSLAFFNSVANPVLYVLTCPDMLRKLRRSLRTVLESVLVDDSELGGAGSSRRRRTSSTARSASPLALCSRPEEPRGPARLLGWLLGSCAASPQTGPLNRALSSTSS
# Assay: Calcium Flux Assay Using Fluorometric Imaging Plate Reader (FLIPR)
# Assay type: cell-based
# Set-up: expressed in transfected cells; host or cells: CHO-K1 previously transfected with G-alpha 16
# Settings: CHO-K1 cells with G-alpha 16 and human CRTH2; inhibition of DK-PGD2 ligand-induced Ca2+ flux
# Description: CHO-K1 cells previously transfected with G-alpha 16 were subsequently transfected with the human CRTH2 receptor and the neomycin resistance gene. Following selection in 800 μg/mL G418 (geneticin), individual clones were assayed for their receptor expression based on staining with an anti human CRTH2 IgG, followed by assaying for their response to 13,14-dihydro-15-keto Prostaglandin D2 (DK-PDG2) (ligand) in the Ca^2+ Flux assay. Positive clones were then cloned by limiting dilution cloning. The transfected cells were cultured in Ham's F-12 medium supplemented with 10% fetal bovine serum, 2 mM glutamine, 100 U/mL penicillin/100 μg/mL streptomycin, 200 μg/mL hygromycin B, and 800 μg/mL G418 (geneticin). Cells were harvested with trypsin-EDTA (trypsin-ethylenediaminetetraacetic acid) and counted using ViaCount® reagent (from Guava Technologies, Inc. which contains two DNA-binding dyes that enable the reagent user to distinguish between viable and non-viable cells). The cell suspension volume was adjusted to 2.5×10^5 cells/mL with complete growth media. Aliquots of 50 μL were dispensed into BD Falcon™ 384 well black/clear microplates (from BD Biosciences, a division of Becton, Dickinson and Company) and the microplates were placed in a 37° C. CO2 incubator overnight. The following day, the microplates were used in the assay.
# Loading Buffer containing dye (from the FLIPR® Calcium 3 Assay Kit from Molecular Devices, a division of MDS Analytical Technologies and MDS Inc.) was prepared by dissolving the contents of one bottle into 200 mL Hank's Balanced Salt Solution containing 20 mM HEPES (4-(2-hydroxyethyl)-1-piperazineethanesulfonic acid) and 2.5 mM probenecid. Growth media was removed from the cell plates and 25 μL of Hank's Balanced Salt Solution (HBSS) containing 20 mM HEPES, 0.05% BSA and 2.5 mM probenecid was added to each well followed by 25 μL of diluted dye using a Multidrop dispenser. The plates were then incubated for 1 hour at 37° C.
# During the incubation, test compound plates were prepared by adding 90 μL of HBSS/20 mM HEPES/0.005% BSA buffer to the 2 μL of serial diluted compounds. To prepare serial diluted compounds, 20 mM stocks of compounds were dissolved in 100% DMSO. The compound dilution plate was set up as follows: well #1 received 5 μL of compound plus 10 μL of DMSO. Wells 2-10 received 10 μL of DMSO. 5 μL was mixed and transferred from well #1 into well #2. 1:3 serial dilutions were continued out 10 steps. 2 μl of diluted compound was transferred into duplicate wells of a 384 well “assay plate” and then 90 μL of buffer was added.
# After incubation, both the cell and “assay plate” plates were brought to the fluorometric imaging plate reader (FLIPR®) and 20 μL of the diluted compounds were transferred to the cell plates by the FLIPR®. Plates were then incubated for 1 hour at room temperature. After the 1 hour incubation, plates were returned to the FLIPR® and 20 μL of 4.5× concentrated ligand was added to the cell plates. During the assay, fluorescence readings were taken simultaneously from all 384 wells of the cell plate every 1.5 seconds. Five readings were taken to establish a stable baseline, then 20 μL of sample was rapidly (30 μL/sec) and simultaneously added to each well of the cell plate. The fluorescence was continuously monitored before, during and after sample addition for a total elapsed time of 100 seconds. Responses (increase in peak fluorescence) in each well following agonist addition were determined. The initial fluorescence reading from each well, prior to ligand stimulation, was used as a zero baseline value for the data from that well. The responses were expressed as % inhibition of the buffer control. […]
row,IC50,SMILES
1,188 nM,"O=C(O)COc1cccc2c1CCCCC2NS(=O)(=O)c1cc(C(F)(F)F)cc(C(F)(F)F)c1 (single isomer, unassigned) [Example 46, [5-(3,5-Bis-trifluoromethyl-benzenesulfonylamino)-6,7,8,9-tetrahydro-5H-benzocyclohepten-1-yloxy]-acetic acid]"
2,114 nM,"O=C(O)COc1cccc2c1CCCCC2NS(=O)(=O)c1cc(C(F)(F)F)cc(C(F)(F)F)c1 (centres unmarked) [Example 1, [5-(3,5-Bis-trifluoromethyl-benzenesulfonylamino)-6,7,8,9-tetrahydro-5H-benzocyclohepten-1-yloxy]-acetic acid]"
